Measurements: US20130316963A1, “INNATE DEFENCE REGULATORY PEPTIDE COMPOSITIONS FOR TREATMENT OF ARTHRITIS” (UNIVERSITY OF MANITOBA, priority 2010, published 2013)

Tests used:
Assay type in all cases: cell-based
[1] = test system: human FLS cells; test: Cellular cytotoxicity by release of lactate dehydrogenase (LDH); conditions: presence and absence of cytokine stimulation, 24 hr; IDR-1002 100 μg/ml, IDR-1 200 μg/ml; data not shown
Protocol: Synovial tissues were obtained from patients with OA in accordance to a protocol by the Institutional Review Board at the University of Manitoba. FLS cells were isolated from the synovial tissues following the procedure taught by Kammouni et al. (2007, Regulation of apoptosis in fibroblast-like synoviocytes by the hypoxia-induced Bcl-2 family member Bcl-2/adenovirus E1B 19-kd protein-interacting protein 3. Arthritis Rheum. 56:2854-2863). […] Cellular cytotoxicity was evaluated by monitoring the release of lactate dehydrogenase (LDH) employing a colorimetric detection kit (Roche Diagnostics, Laval, QC, Canada).
Inflammatory cytokines TNF-α and IL-1β stimulate cells types such as FLS, chondrocytes and macrophages resulting in the production of MMP-3 in arthritic joints. […] In this study we evaluated the impact of IDR peptides on TNF-α and IL-1β-induced MMP-3 production. […] The peptides were not cytotoxic to the FLS cells in the presence and absence of cytokine stimulation, as determined by monitoring the tissue culture supernatants for the release of LDH after 24 hr of stimulation (data not shown). Tissue culture supernatants were monitored after 24 hr of stimulation for MMP-3 production by ELISA. […]

[2] = test system: human FLS cells; test: IL-6 production in human FLS cells stimulated with TGF-β (ELISA); conditions: FIG. 4
Protocol: Tissue culture supernatants were harvested from human FLS cells after stimulation for 24 hr with TGF-β with and without IDR-1002. The supernatants were centrifuged at 1500×g for 7 min to obtain cell-free samples. The samples were aliquoted and stored at −20° C. until further use. Production of IL-6 in the tissue culture supernatants was monitored using Quantikine® human […] ELISA following the manufacturer's instructions. […] FLS cells stimulated with TGF-β produced more than 500 pg/ml of IL-6. […] Results shown are an average of at least three independent biological experiments performed with cells isolated from synovial tissues obtained from independent donors±standard error (*p<0.05, **p<0.01).

[3] = test system: human FLS cells; test: MMP-3 production in tissue culture supernatants of cytokine-stimulated human FLS cells (ELISA); conditions: 24 hr
Protocol: Synovial tissues were obtained from patients with OA in accordance to a protocol by the Institutional Review Board at the University of Manitoba. FLS cells were isolated from the synovial tissues following the procedure taught by Kammouni et al. (2007, Regulation of apoptosis in fibroblast-like synoviocytes by the hypoxia-induced Bcl-2 family member Bcl-2/adenovirus E1B 19-kd protein-interacting protein 3. Arthritis Rheum. 56:2854-2863). Briefly, the tissues were digested with 1 mg/ml collagenase and 0.05 mg/ml hyaluronidase (both obtained from Sigma-Aldrich Co., Oakville, ON, Canada) in Hanks' balanced salt solution (Gibco; Invitrogen Canada Inc., Burlington, ON, Canada) for 1-2 hours at 37° C. Cells were washed and cultured in DMEM media (Gibco) supplemented with sodium pyruvate and non-essential amino acids (referred to as complete DMEM media henceforth), containing 10% (v/v) fetal bovine serum (FBS) in a humidified incubator at 37° C. and 10% CO2. Isolated human FLS cells (ex-vivo) were seeded at 2×10^4 cells/ml, either 0.5 ml per well in 48-well tissue culture plate, or 3 ml per well in 6-well tissue culture plate as required and cultured in complete DMEM media containing 10% (v/v) FBS overnight. The following day the culture media was changed to complete DMEM containing 1% (v/v) FBS before the addition of the various stimulants. The FLS cells were not used beyond passage five. […] Cellular cytotoxicity was evaluated by monitoring the release of lactate dehydrogenase (LDH) employing a colorimetric detection kit (Roche Diagnostics, Laval, QC, Canada).
Tissue culture supernatants were harvested after stimulation of human FLS cells with various cytokines (as indicated) with and without IDR peptides after 24 hr. […] Production of MMP-3 in the tissue culture supernatants was monitored using Quantikine® human MMP-3 (total) ELISA kit (Quantikine is a registered trademark of R&D Systems, Inc. Minneapolis, Minn., USA) as per the manufacturer's instructions. Production of pro-inflammatory cytokines IL-1β, IL-6, IL-10, TNF, IL-12p70 and chemokines IL-8, RANTES, MIG, MCP-1, IP-10 in the tissue culture supernatants was determined using preconfigured multiplex BD Cytometric Bead Array (CBA) human inflammation and chemokine kits respectively, employing the FACS Calibur flow cytometer (BD Biosciences, Mississauga, ON, Canada) as per the manufacture's instructions. The concentration of the cytokines or chemokines in the tissue culture supernatants was evaluated by establishing a standard curve with serial dilutions of the recombinant human cytokines or chemokines as required. […]

## VQRWLIVWRIRK (IDR-1002 peptide)
[1]
  cytotoxicity to FLS cells (release of LDH): not cytotoxic
[2]; TGF-β with IDR-1002, 24 hr
  reduction in TGF-β-induced IL-6 production: more than 50%
[2]; no TGF-β, 24 hr
  IL-6 production by IDR-1002 alone: did not stimulate production of IL-6
[3]; IDR-1002 100 μg/ml for 45 min prior to IL-1β 10 ng/ml, FIG. 2A
  suppression of IL-1β-induced MMP-3: 80%
[3]; IL-1β 10 ng/ml, peptide added at time of stimulation, IDR-1002 100 μg/ml, IDR-1 200 μg/ml, FIG. 1A
  suppression of IL-1β-induced MMP-3 production: 70±8%
[3]; TNF-α+IL-1β 10 ng/ml each, IDR-1002 100 μg/ml, FIG. 1C
  suppression of MMP-3 production induced by cytomix (TNF-α+IL-1β): 56±10%
[3]; no cytokine, vs un-stimulated control FLS cells, IDR-1002 100 μg/ml
  MMP-3 production induced by peptide by itself: did not induce MMP-3 production above the background amount
